This assay has as its target T1, recombinant sEH (Homo sapiens, UniProt P34913).
T1 construct: made in house; host or cells: Sf9 insect cells
T1 sequence (P34913 1-555): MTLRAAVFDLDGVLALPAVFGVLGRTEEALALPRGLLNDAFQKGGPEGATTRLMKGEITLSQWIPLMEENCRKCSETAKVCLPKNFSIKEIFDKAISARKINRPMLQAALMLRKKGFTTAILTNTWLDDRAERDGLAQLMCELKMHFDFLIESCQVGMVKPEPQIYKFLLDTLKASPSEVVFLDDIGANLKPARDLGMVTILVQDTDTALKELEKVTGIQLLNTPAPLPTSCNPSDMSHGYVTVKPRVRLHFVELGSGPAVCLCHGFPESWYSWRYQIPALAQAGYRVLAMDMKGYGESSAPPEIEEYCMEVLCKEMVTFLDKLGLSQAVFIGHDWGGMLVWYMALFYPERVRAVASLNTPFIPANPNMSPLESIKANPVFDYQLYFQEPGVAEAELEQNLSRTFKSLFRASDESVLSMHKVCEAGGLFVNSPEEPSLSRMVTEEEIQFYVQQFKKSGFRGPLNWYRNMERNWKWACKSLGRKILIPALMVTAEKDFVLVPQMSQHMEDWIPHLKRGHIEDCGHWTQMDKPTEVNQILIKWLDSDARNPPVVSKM
Nature of the assay: biochemical screening assay for inhibition of soluble epoxide hydrolase (fluorometric, Phome substrate). Summed up:
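Reading fluorescence before substrate addition and after completion corrected for autofluorescence. Reaction: 5 μM Phome, 2 nM recombinant human sEH (Sf9-expressed), compound 0.0001–10 μM, 25 mM Hepes with 0.01% albumin, 15 min pre-incubation then 60 min at 30 °C; IC50 derived from % inhibition.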

The values below come from patent US9540391B2, “Isomannide derivatives as inhibitors of soluble epoxide hydrolase” (SANOFI, priority 2013, dated 2017).

Structures are written as SMILES.

Turning to `Cc1ncccc1O[C@H]1CO[C@H]2[C@@H]1OC[C@@H]2NC(=O)NC[C@@H]1C[C@@H]2C[C@H]([C@H]1C)C2(C)C` [Example 213, 1-[(3S,3aR,6S,6aS)-6-(2-Methyl-pyridin-3-yloxy)-hexahydro-furo[3,2-b]furan-3-yl]-3-((1R,2R,3R,5S)-2,6,6-trimethyl-bicyclo[3.1.1]hept-3-ylmethyl)-urea], the IC50 turned out to be 3 nM. Under `Cc1ncccc1O[C@H]1CO[C@H]2[C@@H]1OC[C@@H]2NC(=O)NC(C)c1ccc(F)cc1` (stereo partly drawn) [Example 214, 1-[1-(4-Fluoro-phenyl)-ethyl]-3-[(3S,3aR,6S,6aS)-6-(2-methyl-pyridin-3-yloxy)-hexahydro-furo[3,2-b]furan-3-yl]-urea] stands 14 nM. Consider `Cc1ncccc1O[C@H]1CO[C@H]2[C@@H]1OC[C@@H]2NC(=O)Nc1cc(C(C)(C)C)[nH]n1` [Example 215, 1-(5-tert-Butyl-1H-pyrazol-3-yl)-3-[(3S,3aR,6S,6aS)-6-(2-methyl-pyridin-3-yloxy)-hexahydro-furo[3,2-b]furan-3-yl]-urea], for which the IC50 was determined as 238 nM. As to `Cc1ncccc1O[C@H]1CO[C@H]2[C@@H]1OC[C@@H]2NC(=O)NC1CCOCC1` [Example 216, 1-[(3S,3aR,6S,6aS)-6-(2-Methyl-pyridin-3-yloxy)-hexahydro-furo[3,2-b]furan-3-yl]-3-(tetrahydro-pyran-4-yl)-urea], the 50% inhibitory concentration (IC50) was found to be 125 nM. Then `Cc1ncccc1O[C@H]1CO[C@H]2[C@@H]1OC[C@@H]2NC(=O)NCCOC(C)(C)C` [Example 217, 1-(2-tert-Butoxy-ethyl)-3-[(3S,3aR,6S,6aS)-6-(2-methyl-pyridin-3-yloxy)-hexahydro-furo[3,2-b]furan-3-yl]-urea], with 371 nM; and `Cc1nc(CCNC(=O)N[C@H]2CO[C@H]3[C@@H]2OC[C@@H]3Oc2cccnc2C)cs1` [Example 218, 1-[(3S,3aR,6S,6aS)-6-(2-Methyl-pyridin-3-yloxy)-hexahydro-furo[3,2-b]furan-3-yl]-3-[2-(2-methyl-thiazol-4-yl)-ethyl]-urea], with 389 nM; and `Cc1ncccc1O[C@H]1CO[C@H]2[C@@H]1OC[C@@H]2NC(=O)NCC1CN(C)CCO1` (stereo partly drawn) [Example 219, 1-(4-Methyl-morpholin-2-ylmethyl)-3-[(3S,3aR,6S,6aS)-6-(2-methyl-pyridin-3-yloxy)-hexahydro-furo[3,2-b]furan-3-yl]-urea], with 1900 nM.

For `Cc1ncccc1O[C@H]1CO[C@H]2[C@@H]1OC[C@@H]2NC(=O)NC1(C#N)CCCCC1` [Example 220, 1-(1-Cyano-cyclohexyl)-3-[(3S,3aR,6S,6aS)-6-(2-methyl-pyridin-3-yloxy)-hexahydro-furo[3,2-b]furan-3-yl]-urea], the half-maximal inhibitory concentration (IC50) came out at 506 nM. Then `Cc1ncccc1O[C@H]1CO[C@H]2[C@@H]1OC[C@@H]2NC(=O)NC1CCCOC1` (stereo partly drawn) [Example 221, 1-[(3S,3aR,6S,6aS)-6-(2-Methyl-pyridin-3-yloxy)-hexahydro-furo[3,2-b]furan-3-yl]-3-(tetrahydro-pyran-3-yl)-urea], with 96 nM; and `Cc1ncccc1O[C@H]1CO[C@H]2[C@@H]1OC[C@@H]2NC(=O)NCc1c(C)n[nH]c1C` [Example 222, 1-(3,5-Dimethyl-1H-pyrazol-4-ylmethyl)-3-[(3S,3aR,6S,6aS)-6-(2-methyl-pyridin-3-yloxy)-hexahydro-furo[3,2-b]furan-3-yl]-urea], with 54 nM; and `Cc1ncccc1O[C@H]1CO[C@H]2[C@@H]1OC[C@@H]2NC(=O)NCCc1ccc(S(C)(=O)=O)cc1` [Example 223, 1-[2-(4-Methanesulfonyl-phenyl)-ethyl]-3-[(3S,3aR,6S,6aS)-6-(2-methyl-pyridin-3-yloxy)-hexahydro-furo[3,2-b]furan-3-yl]-urea], with 262 nM.

With `Cc1ncccc1O[C@H]1CO[C@H]2[C@@H]1OC[C@@H]2NC(=O)NCc1cccc2c1OC(C)(C)C2` [Example 224, 1-(2,2-Dimethyl-2,3-dihydro-benzofuran-7-ylmethyl)-3-[(3S,3aR,6S,6aS)-6-(2-methyl-pyridin-3-yloxy)-hexahydro-furo[3,2-b]furan-3-yl]-urea], the half-maximal inhibitory concentration (IC50) worked out at 39 nM. Then `Cc1nn(C(C)C)cc1NC(=O)N[C@H]1CO[C@H]2[C@@H]1OC[C@@H]2Oc1cccnc1C` [Example 225, 1-(1-Isopropyl-3-methyl-1H-pyrazol-4-yl)-3-[(3S,3aR,6S,6aS)-6-(2-methyl-pyridin-3-yloxy)-hexahydro-furo[3,2-b]furan-3-yl]-urea], with 43 nM; and `Cc1ncccc1O[C@H]1CO[C@H]2[C@@H]1OC[C@@H]2NC(=O)NC(C)(C)COC(C)(C)C` [Example 226, 1-(2-tert-Butoxy-1,1-dimethyl-ethyl)-3-[(3S,3aR,6S,6aS)-6-(2-methyl-pyridin-3-yloxy)-hexahydro-furo[3,2-b]furan-3-yl]-urea], with 475 nM; and `Cc1nc(CNC(=O)N[C@H]2CO[C@H]3[C@@H]2OC[C@@H]3Oc2cccnc2C)cs1` [Example 227, 1-[(3S,3aR,6S,6aS)-6-(2-Methyl-pyridin-3-yloxy)-hexahydro-furo[3,2-b]furan-3-yl]-3-(2-methyl-thiazol-4-ylmethyl)-urea], with 1680 nM. Under `Cc1ncccc1O[C@H]1CO[C@H]2[C@@H]1OC[C@@H]2NC(=O)NC1CCSCC1` [Example 228, 1-[(3S,3aR,6S,6aS)-6-(2-Methyl-pyridin-3-yloxy)-hexahydro-furo[3,2-b]furan-3-yl]-3-(tetrahydro-thiopyran-4-yl)-urea] stands 9 nM; under `Cc1ncccc1O[C@H]1CO[C@H]2[C@@H]1OC[C@@H]2NC(=O)NC1(c2cccc(F)c2)CCCC1` [Example 229, 1-[1-(3-Fluoro-phenyl)-cyclopentyl]-3-[(3S,3aR,6S,6aS)-6-(2-methyl-pyridin-3-yloxy)-hexahydro-furo[3,2-b]furan-3-yl]-urea], 1160 nM; under `Cc1ncccc1OC1COC2C(NC(=O)NC34CC5(C)CC(C)(CC(O)(C5)C3)C4)COC12` [Example 230, 1-((1R,3S,5R,7S)-3-Hydroxy-5,7-dimethyl-adamantan-1-yl)-3-[(3S,3aR,6S,6aS)-6-(2-methyl-pyridin-3-yloxy)-hexahydro-furo[3,2-b]furan-3-yl]-urea], 19 nM. Then `Cc1ncccc1OC1COC2C(NC(=O)NC3CC4CCC3(C)C4(C)C)COC12` [Example 231, 1-[(2R,3aS,5S,6S)-6-(2-Methyl-pyridin-3-yloxy)-hexahydro-furo[3,2-b]furan-3-yl]-3-((1R,4R)-1,7,7-trimethyl-bicyclo[2.2.1]hept-2-yl)-urea], with 10 nM; and `Cc1ncccc1O[C@H]1CO[C@H]2[C@@H]1OC[C@@H]2NC(=O)NC(C)(C)C(F)(F)F` [Example 232, 1-[(3S,3aR,6S,6aS)-6-(2-Methyl-pyridin-3-yloxy)-hexahydro-furo[3,2-b]furan-3-yl]-3-(2,2,2-trifluoro-1,1-dimethyl-ethyl)-urea], with 268 nM. With `Cc1ncccc1O[C@H]1CO[C@H]2[C@@H]1OC[C@@H]2NC(=O)NC(C)(C)c1cccnc1` [Example 233, 1-(1-Methyl-1-pyridin-3-yl-ethyl)-3-[(3S,3aR,6S,6aS)-6-(2-methyl-pyridin-3-yloxy)-hexahydro-furo[3,2-b]furan-3-yl]-urea], the IC50 was determined as 3560 nM.

`Cc1ncccc1O[C@H]1CO[C@H]2[C@@H]1OC[C@@H]2NC(=O)NC(C)c1c(C)nn(C)c1C` (stereo partly drawn) [Example 234, 1-[(3S,3aR,6S,6aS)-6-(2-Methyl-pyridin-3-yloxy)-hexahydro-furo[3,2-b]furan-3-yl]-3-[1-(1,3,5-trimethyl-1H-pyrazol-4-yl)-ethyl]-urea]: the IC50 amounted to 172 nM. Under `Cc1ncccc1O[C@H]1CO[C@H]2[C@@H]1OC[C@@H]2NC(=O)NCCC1CCCCO1` (stereo partly drawn) [Example 235, 1-[(3S,3aR,6S,6aS)-6-(2-Methyl-pyridin-3-yloxy)-hexahydro-furo[3,2-b]furan-3-yl]-3-[2-(tetrahydro-pyran-2-yl)-ethyl]-urea] stands 86 nM. Under `Cc1ncccc1O[C@H]1CO[C@H]2[C@@H]1OC[C@@H]2NC(=O)NCCN1CCCC1=O` [Example 236, 1-[(3S,3aR,6S,6aS)-6-(2-Methyl-pyridin-3-yloxy)-hexahydro-furo[3,2-b]furan-3-yl]-3-[2-(2-oxo-pyrrolidin-1-yl)-ethyl]-urea] stands 3840 nM. Under `COC[C@@H](NC(=O)N[C@H]1CO[C@H]2[C@@H]1OC[C@@H]2Oc1cccnc1C)c1ccccc1` [Example 237, 1-((S)-2-Methoxy-1-phenyl-ethyl)-3-[(3S,3aR,6S,6aS)-6-(2-methyl-pyridin-3-yloxy)-hexahydro-furo[3,2-b]furan-3-yl]-urea] stands 177 nM.

In the case of `Cc1ncccc1O[C@H]1CO[C@H]2[C@@H]1OC[C@@H]2NC(=O)NC1(c2cccnc2)CC1` [Example 238, 1-[(3S,3aR,6S,6aS)-6-(2-Methyl-pyridin-3-yloxy)-hexahydro-furo[3,2-b]furan-3-yl]-3-(1-pyridin-3-yl-cyclopropyl)-urea], the IC50 is 2060 nM.

With `Cc1ncccc1O[C@H]1CO[C@H]2[C@@H]1OC[C@@H]2NC(=O)NCC1C[C@@H]2CC[C@H]1O2` (stereo partly drawn) [Example 239, 1-[(3S,3aR,6S,6aS)-6-(2-Methyl-pyridin-3-yloxy)-hexahydro-furo[3,2-b]furan-3-yl]-3-[(1R,4S)-1-(7-oxa-bicyclo[2.2.1]hept-2-yl)methyl]-urea], the half-maximal inhibitory concentration (IC50) came to 78 nM.

The IC50 is the midpoint of a concentration-inhibition curve.
